Biological target: T1, Muscarinic acetylcholine receptor M1 (Homo sapiens, UniProt P11229)
T1 sequence (P11229 whole entry): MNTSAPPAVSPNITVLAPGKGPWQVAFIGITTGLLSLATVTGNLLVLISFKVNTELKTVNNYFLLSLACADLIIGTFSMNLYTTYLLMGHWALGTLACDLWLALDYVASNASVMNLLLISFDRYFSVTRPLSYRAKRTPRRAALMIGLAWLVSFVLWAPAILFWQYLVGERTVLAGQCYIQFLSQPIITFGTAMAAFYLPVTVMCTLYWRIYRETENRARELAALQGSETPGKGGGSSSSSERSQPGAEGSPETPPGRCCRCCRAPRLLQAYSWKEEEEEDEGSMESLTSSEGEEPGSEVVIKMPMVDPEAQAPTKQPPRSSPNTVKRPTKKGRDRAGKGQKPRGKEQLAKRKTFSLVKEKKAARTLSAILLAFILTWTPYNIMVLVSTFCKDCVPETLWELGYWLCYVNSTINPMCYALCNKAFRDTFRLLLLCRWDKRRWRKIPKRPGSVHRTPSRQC
Experiment: Determination of Allosteric Potency EC50 Values for Muscarinic M1 Receptor: A stable CHO cell line expressing recombinant human Muscarinic M1 receptor and pCRE-Luc reporter system was used for cell-based assay. The assay offers a non-radioactive based approach to determine binding of a compound to GPCRs. In this specific assay, the level of intracellular cyclic AMP which is modulated by activation or inhibition of the receptor is measured. The recombinant cells harbor luciferase reporter gene under the control of cAMP response element.The above cells were grown in 96 well clear bottom white plates in Hams F12 medium containing 10% fetal bovine serum (FBS). Prior to the addition of compounds or standard agonist, cells were serum starved overnight. Increasing concentrations of test compounds were added along with EC20 of acetylcholine in OptiMEM medium to the cells. The incubation was continued at 37° C. in CO2 incubator for 4 hours. Medium was removed and cells were washed with phosphate buffered saline. The cells were lysed and luciferase activity was measured in a Luminometer. Luminescence units were plotted against the compound concentrations using Graphpad software. EC50 values of the compounds were defined as the concentration required in stimulating the luciferase activity by 50% in presence of EC20 of acetylcholine.

EC50: 1 µM
Structure (SMILES): O=C(N[C@H]1CCCC[C@@H]1O)C1=CN(Cc2ccccc2)c2cccnc2O1
